# Reference: PMC7765794 (Nutrients, 2020)
# Biological target: T1, human ODC (Homo sapiens, UniProt P11926)
# T1 construct: His-tag (N); made in house; host or cells: Escherichia coli JM109
# T1 sequence (P11926 1-461): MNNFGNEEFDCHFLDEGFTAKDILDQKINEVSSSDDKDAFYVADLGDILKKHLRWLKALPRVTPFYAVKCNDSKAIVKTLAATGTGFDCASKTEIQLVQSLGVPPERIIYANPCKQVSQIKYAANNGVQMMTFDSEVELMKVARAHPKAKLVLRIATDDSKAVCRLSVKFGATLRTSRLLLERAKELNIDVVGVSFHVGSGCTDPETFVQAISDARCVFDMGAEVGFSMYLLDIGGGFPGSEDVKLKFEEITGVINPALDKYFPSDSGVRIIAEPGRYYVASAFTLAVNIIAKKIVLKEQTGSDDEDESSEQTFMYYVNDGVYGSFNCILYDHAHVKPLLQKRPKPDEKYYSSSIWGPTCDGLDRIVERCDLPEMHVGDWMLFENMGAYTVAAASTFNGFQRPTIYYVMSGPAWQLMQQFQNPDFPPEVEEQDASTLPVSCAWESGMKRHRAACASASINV
# Assay: ODC enzyme activity assay and inhibition study (CO2-L3K coupled spectrophotometric assay);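 note: His-tagged human ODC expressed in Escherichia coli, activity followed as decarboxylation coupled via PEP carboxylation and malate formation to NADH analog oxidation, absorbance drop at 405 nm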
# Assay type: biochemical
# Details: for IC50 relative to that of myricetin: IC50 greater than that of myricetin; for IC50 / IC50 to ornithine decarboxylase (ODC): purified human ODC, 37 °C, 10 mM ornithine, 0.2 mM PLP, n = 3; for IC50: read-out: IC50 to ornithine decarboxylase (ODC); for ODC suppression activity (in words): purified human ODC enzyme activity
Structure (SMILES),ODC suppression activity (in words),IC50 to ornithine decarboxylase (ODC),other results
O=c1cc(-c2ccc(O)c(O)c2)oc2cc(O)cc(O)c12 [Luteolin],,,IC50 relative to that of myricetin: 10 fold; IC50: 90 µM
O=c1cc(-c2ccccc2)oc2ccc(O)cc12 [6-Hydroxyflavone],did not show any ODC suppression activity,No inhibition,
"Cn1cnc2c1c(=O)[nH]c(=O)n2C [Theobromine, reference compound]",cannot inhibit ODC activity,,ODC suppression activity (in words) (listed as theobromine): none of these compounds were able to suppress ODC activity
O=c1c(O)c(-c2ccc(O)c(O)c2)oc2cc(O)ccc12 [Fisetin],,,IC50: 96 µM
O=c1cc(-c2ccc(O)cc2)oc2cc(O)cc(O)c12 [Apigenin],did not show any ODC suppression activity,No inhibition,
O=c1c(-c2ccc(O)cc2)coc2cc(O)ccc12 [Daidzein],did not show any ODC suppression activity,No inhibition,
O=c1c(O)c(-c2ccc(O)cc2O)oc2cc(O)cc(O)c12 [Morin],,,IC50 relative to that of myricetin: 10 fold; IC50: 82 µM
O=C1C[C@@H](c2ccccc2)Oc2cc(O)cc(O)c21 [Pinocembrin],little ODC suppression activity,No inhibition,
"Cc1ncc(CO)c(C(=O)O)c1O [4-Pyridoxic acid, reference compound]",cannot inhibit ODC activity,,ODC suppression activity (in words) (listed as 4-pyridoxic acid): none of these compounds were able to suppress ODC activity
O=c1cc(-c2ccccc2)oc2cc(O)ccc12 [7-Hydroxyflavone],did not show any ODC suppression activity,No inhibition,
"O=C1C=Cc2ccccc2C1=O [1,2-Naphthoquinone, reference compound]",cannot inhibit ODC activity,,"ODC suppression activity (in words) (listed as 1,2-naphthoquinone): none of these compounds were able to suppress ODC activity"
O=c1cc(-c2ccccc2)oc2cc(O)cc(O)c12 [Chrysin],little ODC suppression activity,No inhibition,
O=c1c(O)c(-c2ccc(O)cc2)oc2cc(O)cc(O)c12 [Kaempferol],did not show any ODC suppression activity,,
O=c1c(O)c(-c2ccc(O)c(O)c2)oc2cc(O)cc(O)c12 [Quercetin],,,IC50 relative to that of myricetin: 10 fold; IC50: 82 µM
"COc1ccc2c(=O)cc(-c3ccccc3)oc2c1OC [7,8-Dimethoxyflavone]",little ODC suppression activity,No inhibition,
"Cc1ncc(CO)c(C)c1O [4-Deoxypyridoxine, reference compound]",cannot inhibit ODC activity,,ODC suppression activity (in words) (listed as 4-deoxypyridoxine): none of these compounds were able to suppress ODC activity
"Oc1ccc2c(c1)OCO2 [Sesamol, reference compound]",cannot inhibit ODC activity,,ODC suppression activity (in words) (listed as sesamol): none of these compounds were able to suppress ODC activity
O=C1C[C@@H](c2ccc(O)cc2)Oc2cc(O)cc(O)c21 [Naringenin],did not show any ODC suppression activity,No inhibition,
C[C@@H]1O[C@@H](OC[C@H]2O[C@@H](Oc3c(-c4ccc(O)c(O)c4)oc4cc(O)cc(O)c4c3=O)[C@H](O)[C@@H](O)[C@@H]2O)[C@H](O)[C@H](O)[C@H]1O [Rutin],did not display apparent ODC-suppressing activity,,IC50: > 120 µM
O=c1c(O)c(-c2ccccc2)oc2ccccc12 [Flavonol],little ODC suppression activity,No inhibition,
"Cn1c(=O)c2[nH]cnc2n(C)c1=O [Theophylline, reference compound]",cannot inhibit ODC activity,,ODC suppression activity (in words) (listed as theophylline): none of these compounds were able to suppress ODC activity
"NCCCC(N)(C(=O)O)C(F)F (racemic) [DFMO, α-DL-difluoromethylornithine, reference compound]",,,IC50: ~100 µM
O=c1cc(-c2ccccc2)oc2ccccc12 [Flavone],little ODC suppression activity,No inhibition,
"CCOc1cc(C=O)ccc1O [Ethyl vanillin, reference compound]",cannot inhibit ODC activity,,ODC suppression activity (in words) (listed as ethyl vanillin): none of these compounds were able to suppress ODC activity
"O=c1cc(-c2ccccc2)oc2c(O)c(O)ccc12 [7,8-Dihydroxyflavone]",,,"inhibition pattern with respect to L-ornithine (double reciprocal plots): noncompetitive inhibition pattern; IC50: 2.54 µM; Ki (with respect to substrate L-ornithine, noncompetitive fit, read-out: Ki(ornithine) against ODC): 1.4 ± 0.1 µM"
"O=c1cc(-c2ccccc2)oc2cc(O)c(O)cc12 [6,7-Dihydroxyflavone]",,,"IC50 relative to that of 7,8-DHF (IC50 greater than that of 7,8-DHF): approximately 100 fold; IC50: 289 µM"
COc1ccc(-c2coc3cc(O)cc(O)c3c2=O)cc1 [Biochanin],did not show any ODC suppression activity,No inhibition,
"Cc1ncc(CO)c(CN)c1O [Pyridoxamine, reference compound]",cannot inhibit ODC activity,,ODC suppression activity (in words) (listed as pyridoxamine): none of these compounds were able to suppress ODC activity
"Cn1c(=O)c2c(ncn2C)n(C)c1=O [Caffeine, reference compound]",cannot inhibit ODC activity,,ODC suppression activity (in words) (listed as caffeine): none of these compounds were able to suppress ODC activity
